tested on: P. falciparum 3D7 growth, pLDH absorbance; assay: P. falciparum 3D7 growth inhibition, dose response, strain 3D7 (AID 2305)

| Compound | IC50 |
| --- | --- |
| CCCN1CCC(NCc2cn(C)nc2-c2ccc(Oc3ccccc3)cc2)CC1 | 1440 nM |
| O=C(Nc1ccc(OC2CCN(Cc3ccccc3)CC2)c(Cl)c1)c1cccs1 | 310 nM |
| CN(C)C(C)(C)CN(Cc1ccc(-c2ccc(C(F)(F)F)cc2)cc1)C(=O)Cn1c(CCc2cccc(F)c2F)nc(=O)c2ccccc21 | 830 nM |
| CC(C)(C)NCCN(Cc1ccc(-c2ccc(C(F)(F)F)cc2)cc1)C(=O)Cn1c(CCc2cccc(F)c2F)nc(=O)c2c1CCC2 | 950 nM |
| COc1ccccc1NC(=O)NC1CCN(CCCCCNC(=O)/C=C/c2ccc(Cl)c(Cl)c2)CC1 | 750 nM |
| Cc1cc([N+](=O)[O-])ccc1N1CCN(CCCCNC(=O)c2ccc(NC(=O)c3ccc(Cl)cc3)cc2)CC1 | 890 nM |
| CCN(CCCN1CCCCC1)c1cc(C)nc(Nc2ccc(C)cc2C)n1 | 350 nM |
| CCCCc1cc(NCC)nc(Nc2ccc(F)cc2)n1 | 790 nM |
| Cc1nc(-c2ccc(-c3ccc(C(=O)Nc4ccc(I)c(OCCN5CCCC5)c4)cc3)c(C)c2)no1 | 960 nM |
| O=[N+]([O-])c1ccc(C=NNc2nc3ccccc3[nH]2)cc1 | 280 nM |
| O=C(Nc1cccc(-c2csc(-c3nc4ccccc4[nH]3)c2)c1)c1ccncc1 | 260 nM |
| OC(CNC1CCCCC1)Cn1c2ccc(I)cc2c2cc(I)ccc21 (stereo not given) | 340 nM |
| Cc1cc(NN=Cc2ccccc2[N+](=O)[O-])c2cc(F)ccc2n1 | 660 nM |
| Cn1cnc2c(SCc3ccccc3OCc3ccccc3)ncnc21 | 920 nM |
| CCc1cc(=O)[nH]c(-n2nc(C)cc2NC(=O)CC(c2ccccc2)c2ccccc2)n1 | 960 nM |
| Cc1cc(OC(C)C(=O)N2CCc3ccccc32)ccc1Cl (stereo not given) | 790 nM |
| COc1ccc(O)c(-c2sc(N=C(N)N)nc2-c2ccccc2)c1 | 370 nM |
| CC[C@H]1CN2CC[C@@H]1C[C@H]2[C@H](O)c1ccnc2ccc(OC)cc12 | 230 nM |
| Cc1cccc2[nH]c(-c3ccc(-c4ccc(NC(=O)Nc5cccc(C#N)c5)cc4)cc3)nc12 | 110 nM |
| CCN(CC)CCNc1c2ccc(Cl)cc2nc2ccc(OC)nc12 | 740 nM |
| O=C(Nc1ccc(Cl)cc1)c1ccc(CN2CCCN(Cc3ccc(F)cc3)CC2)cc1 | 970 nM |
| O=C(NC(=Cc1cccc([N+](=O)[O-])c1)c1nc2ccccc2[nH]1)c1cccc(Br)c1 | 620 nM |
| CN(C)c1nc(NCc2ccccc2)nc(NN=Cc2cc([N+](=O)[O-])ccc2O)n1 | 690 nM |
| COc1ccc2nccc(NN=Cc3cccnc3)c2c1 | 500 nM |
| CN1CCN(CC(=O)Nc2cccc(-c3cccc(-c4nc5ccc(F)cc5[nH]4)c3)c2)CC1 | 740 nM |

| Compound | IC50 |
| --- | --- |
| Nc1nc(N)c2c(CCc3ccc4ccccc4c3)cccc2n1 | 690 nM |
| COc1cccc2cc(C(=O)N[C@@H](CC(C)C)C(=O)N[C@H](/C=N/NC(=O)N3CCN(C)CC3)CCc3ccccc3)oc12 | 620 nM |
| O=C(c1cc(C(=O)Nc2ccccc2)c(=O)n(-c2ccccc2)c1)c1cc(Cl)ccc1O | 390 nM |
| C=CCn1c(=N)c(C(=O)NC2CCCCC2)cc2c(=O)n3cccc(C)c3nc21 | 1040 nM |
| COc1ccc(-c2cccc(NC(=O)c3ccc(C#N)cc3)c2)cc1CNC(C)C | 810 nM |
| Cc1ccccc1C1CCN(C2CCC(NC(=O)c3ccc(-c4ccccc4)s3)CC2)CC1 (stereo not given) | 660 nM |
| CN1CCCC(COc2cc3c(cc2Br)CCN3C(=O)Nc2ccc(-c3ccncc3)c(Cl)c2)C1 (stereo not given) | 230 nM |
| CN(C)C(CNC(=O)c1cc(-c2ccncc2)c(-c2ccc(NC(=O)Nc3cccc(Cl)c3)cc2)o1)c1ccccc1 (stereo not given) | 180 nM |
| CC(Cc1ccc(OCCN2CCN(c3ccccc3)CC2)cc1)NCC(O)c1cccc(Cl)c1F (stereo not given) | 870 nM |
| N#Cc1cccc(NC(=O)NC2CCN(CCCCCNC(=O)[C@@H]3C[C@H]3c3ccc(Cl)c(Cl)c3)CC2)c1 | 790 nM |
| N#Cc1ccc(CN2CCCN(c3ccc(NC(=O)c4ccc(F)cc4)cc3)CC2)cc1 | 1280 nM |
| COc1ccc(-c2cccc(NC(=O)c3cccc(C#N)c3)c2)cc1CNC(C)C | 690 nM |
| CN(C)CCN(C)Cc1ccc(-c2ccc3c(Nc4ccc(Oc5ccccc5)cc4)ccnc3c2)o1 | 180 nM |
| O=C(NC1CCC(CN2CCC(c3c[nH]c4ccccc34)CC2)CC1)c1cc(-c2ccccc2Cl)n(-c2cccc(Cl)c2)n1 (stereo not given) | 850 nM |
| Cc1cc(CN2CCC(N3CC(c4ccccc4)(c4ccccc4)OC3=O)C2)ccc1O (stereo not given) | 780 nM |
| CCNc1cc(C(=O)N[C@@H](Cc2ccc(Cl)cc2)[C@H](O)CNC2CCCCC2)cc(N2CCCCS2(=O)=O)c1 | 150 nM |
| CN1CCN(CCCNCc2cccc(-c3ccc(CNCCc4ccccc4)cc3)c2)CC1 | 780 nM |
| CCCCNC(=O)[C@H](CC1CCCCC1)NC(=O)c1ccc(O)c(-c2ccc(Cl)c(Cl)c2)c1 | 160 nM |
| NC(N)=NC(=O)Nc1cc(Cl)c(Cl)c(C(F)(F)F)c1 | 610 nM |
| O=C(/C=C/c1ccc(Cl)c(Cl)c1)NCCCCCN1CCCC(c2c[nH]c3ccccc23)C1 (stereo not given) | 810 nM |
| O=C(CC1CCCC1)Nc1ccc2c(c1)CCC2 | 870 nM |
| Cc1cc(NN=Cc2ccc(F)cc2)c2ccc(C(F)(F)F)cc2n1 | 820 nM |
| CCCc1cc(Cc2cnc(N)nc2N)c2cccnc2c1OC | 670 nM |
| CC(=O)Nc1ncc(C(=O)Nc2cccc(-c3ccc(-c4nc5ccc(F)cc5[nH]4)cc3)c2)s1 | 620 nM |
| COc1ccc2c(c1)CC(C)(C)NC2CCCCCCCCC1NC(C)(C)Cc2cc(OC)ccc21 (stereo not given) | 1300 nM |
